# pEC50: −log10 of the molar value. Read-outs that look alike come from different tables or passages of the source.
# Key:
# [1] = tested on: SMN FL and SMN Δ7 in spinal muscular atrophy (SMA) patient fibroblasts (GM03813, Coriell); test: Quantitative splicing assay (SMN), qPCR; type: cell-based, human; conditions: Homo sapiens, Fibroblast, 24 h, 24 h, read-out: SMN2 Splicing FL EC50
# Protocol: Spinal muscular atrophy (SMA) patient fibroblasts (GM03813, Coriell) are plated in 96-well plates at 50,000 cells/well. […] Treated cells are lysed and cDNA synthesized using the Fast Advanced Cells-to-Ct kit (Thermofisher A35378) according to the manufacturer's instructions. 2 μL of each cDNA are used in qPCR reactions. […] Reactions are run in a Quant Studio 6 qPCR instrument with default settings.
# [2] = tested on: mHTT protein in GM04724 (CAG 70/20) Huntington's disease patient lymphoblast cells; test: mHTT protein assay, 2B7-MW1 assay via Mesoscale Discovery (MSD); type: cell-based, human
# In short: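 Patient lymphoblasts treated 48 h with compound from 10 μM to 0.6 nM. mHTT quantified by MSD 2B7-MW1 immunoassay, whose signal depends on polyQ expansion and HTT size. Viability measured on a replicate plate by CellTiter Glo.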
# MDR1 (P-gp) = test: Blood-brain-barrier (BBB) penetration potential via MDCK-MDR1 permeability assay; conditions: dog; for Papp A→B at 120 min, 5 μM: MDCK-MDR1, pH 7.4, MDCK-MDR1: Papp A-B; for Papp B→A at 120 min, 5 μM: MDCK-MDR1, pH 7.4, MDCK-MDR1: Papp B-A
# [3] = tested on: MDR1-MDCK cell monolayers; test: as above
# MDR1 = test: as above; conditions: dog, MDCK-MDR1, pH 7.4, MDCK-MDR1: Efflux
# [4] = tested on: SMN protein in spinal muscular atrophy (SMA) patient fibroblasts (GM03813, Coriell); test: SMN protein assay, Mesoscale Discovery (MSD); type: cell-based, human; conditions: read-out: SMN2 protein EC50
# In short: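 SMA patient fibroblasts (GM03813) seeded at 7000 cells/well and exposed to compound at 2.5 μM to 0.6 nM for 48 hours. Lysates assayed for SMN by MSD immunoassay, with absolute SMN amount calculated from a per-plate SMN standard curve (1 μg/ml to 19.5 pg/ml).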
# [5] = SMA patient fibroblasts (GM03813)
# [6] = GM04724 (CAG 70/20) Huntington's disease patient lymphoblasts
# [7] = SMA patient fibroblasts (GM03813), 48 hours
# [8] = SMA patient fibroblasts GM03813, 24 h, qPCR
# [9] = GM04724 Huntington's disease patient lymphoblasts
# [10] = SMA patient fibroblasts GM03813, 48 hours, MSD
SMILES,"pEC50 [1, 5]","pEC50 [2, 6]","Papp A→B at 120 min, 5 μM (MDR1 (P-gp); A-B) [×10⁻⁶ cm/s]","Papp B→A at 120 min, 5 μM (MDR1 (P-gp); B-A) [×10⁻⁶ cm/s]",MDCK-MDR1: % Recov A-B ([3]; A-B) [%],MDCK-MDR1: % Recov B-A ([3]; B-A) [%],"efflux ratio at 120 min, 5 μM (MDR1)","pEC50 [4, 7]","pEC50 [1, 8]","pEC50 [2, 9]","Papp A→B at 120 min, 5 μM (MDR1 (P-gp); A-B direction) [×10⁻⁶ cm/s]","Papp B→A at 120 min, 5 μM (MDR1 (P-gp); B-A direction) [×10⁻⁶ cm/s]",MDCK-MDR1: % Recov A-B ([3]; A-B direction) [%],MDCK-MDR1: % Recov B-A ([3]; B-A direction) [%],"efflux ratio at 120 min, 5 μM (MDR1; efflux ratio)","pEC50 [4, 10]","mHTT protein EC50 [2, 9]"
"CN(c1ccc(-c2cc3ncn(C)c(=O)c3cc2O)nn1)[C@H]1C[C@@H]2CC[C@H]([C@H]1F)N2C [Compound 101B, 7-(6-(((1R,2R,3S,5S)-2-fluoro-8-methyl-8-azabicyclo[3.2.1]octan-3-yl)(methyl)amino)pyridazin-3-yl)-6-hydroxy-3-methylquinazolin-4(3H)-one]",7.00 to 7.29,7.00 to 7.29,2.41,59.1,118,119,24,7.82 to 11.00,–,–,–,–,–,–,–,–,–
"CN(c1ccc(-c2cc3oc(C(=O)N4CCC4)cc3cc2O)nn1)[C@@H]1C[C@H]2CC[C@H](N2)[C@@H]1F [Compound 112A, azetidin-1-yl(6-(6-(((1S,2S,3R,5R)-2-fluoro-8-azabicyclo[3.2.1]octan-3-yl)(methyl)amino)pyridazin-3-yl)-5-hydroxybenzofuran-2-yl)methanone]",7.00 to 7.29,7.00 to 7.29,0.6,43.8,95,78,74,7.82 to 11.00,–,–,–,–,–,–,–,–,–
"CN(c1ccc(-c2cc3nccnc3cc2O)nn1)[C@@H]1C[C@H]2CC[C@H](N2)[C@@H]1F [Compound 88A, 7-(6-(((1S,2S,3R,5R)-2-fluoro-8-azabicyclo[3.2.1]octan-3-yl)(methyl)amino)pyridazin-3-yl)quinoxalin-6-ol]",–,–,–,–,–,–,–,–,6.30 to 7.00,7.00 to 7.29,4.84,45.7,85,99,9,7.30 to 7.80,–
"CN(c1ccc(-c2ccc(-n3cnc(C#N)c3)cc2O)nn1)[C@@H]1C[C@H]2CCC[C@H](N2)[C@@H]1F [Compound 63A, 1-(4-(6-(((1S,2S,3R,5R)-2-fluoro-9-azabicyclo[3.3.1]nonan-3-yl)(methyl)amino)pyridazin-3-yl)-3-hydroxyphenyl)-1H-imidazole-4-carbonitrile]",–,–,–,–,–,–,–,–,7.30 to 7.80,7.00 to 7.29,1.5,46,76,91,31,7.82 to 11.00,–
"CN(c1ccc(-c2cc3ncn(CC(F)(F)F)c(=O)c3cc2O)nn1)[C@@H]1C[C@H]2CC[C@H](N2)[C@@H]1F [Compound 81A, 7-(6-(((1S,2S,3R,5R)-2-fluoro-8-azabicyclo[3.2.1]octan-3-yl)(methyl)amino)pyridazin-3-yl)-6-hydroxy-3-(2,2,2-trifluoroethyl)quinazolin-4(3H)-one]",–,–,–,–,–,–,–,–,7.00 to 7.29,6.30 to 7.00,0.37,51,100,94,139,7.30 to 7.80,–
"Cc1cc(=O)c2cc(-c3ccc(N(C)[C@H]4C[C@@H]5CC[C@H]([C@H]4F)N5C)nn3)c(O)cc2o1 [Compound 100B, 6-(6-(((1R,2R,3S,5S)-2-fluoro-8-methyl-8-azabicyclo[3.2.1]octan-3-yl)(methyl)amino)pyridazin-3-yl)-7-hydroxy-2-methyl-4H-chromen-4-one]",7.30 to 7.80,7.00 to 7.29,9.57,38.7,79,80,4,7.30 to 7.80,–,–,–,–,–,–,–,–,–
"CN(c1ccc(-c2cc3ncn(CC(F)(F)F)c(=O)c3cc2O)nn1)[C@H]1C[C@@H]2CC[C@@H](N2)[C@H]1F [Compound 81B, 7-(6-(((1R,2R,3S,5S)-2-fluoro-8-azabicyclo[3.2.1]octan-3-yl)(methyl)amino)pyridazin-3-yl)-6-hydroxy-3-(2,2,2-trifluoroethyl)quinazolin-4(3H)-one]",–,–,–,–,–,–,–,–,7.30 to 7.80,7.00 to 7.29,0.4,54.6,96,100,138,7.82 to 11.00,–
"CN(c1ccc(-c2cc3ncn(CC(F)(F)F)c(=O)c3cc2O)nn1)[C@H]1C[C@@H]2CCC[C@@H](N2)[C@H]1F [Compound 58B, 7-(6-(((1R,2R,3S,5S)-2-fluoro-9-azabicyclo[3.3.1]nonan-3-yl)(methyl)amino)pyridazin-3-yl)-6-hydroxy-3-(2,2,2-trifluoroethyl)quinazolin-4(3H)-one]",–,–,–,–,–,–,–,–,7.82 to 11.00,–,0.43,53.9,76,85,126,7.82 to 11.00,E (501 ≤ E ≤ 10.000)
"CN(c1ccc(-c2cc3cccnc3cc2O)nn1)[C@@H]1C[C@H]2CC(F)(F)[C@@H](C1)N2 [Compound 45A, 6-(6-(((1S,3R,5R)-6,6-difluoro-8-azabicyclo[3.2.1]octan-3-yl)(methyl)amino)pyridazin-3-yl)quinolin-7-ol]",–,–,–,–,–,–,–,–,6.30 to 7.00,7.00 to 7.29,9.45,54.6,104,115,6,7.30 to 7.80,–
"CN(c1ccc(-c2ccc(-n3cnc(C#N)c3)cc2O)nn1)[C@@H]1C[C@H]2CC[C@H](N2)[C@@H]1F [Compound 69A, 1-(4-(6-(((1S,2S,3R,5R)-2-fluoro-8-azabicyclo[3.2.1]octan-3-yl)(methyl)amino)pyridazin-3-yl)-3-hydroxyphenyl)-1H-imidazole-4-carbonitrile]",–,–,–,–,–,–,–,–,7.00 to 7.29,6.30 to 7.00,1.36,39.4,87,86,29,7.30 to 7.80,–
"Cc1ccc(-c2ccc(-c3ccc(N(C)[C@@H]4C[C@H]5CCC[C@H](N5)[C@@H]4F)nn3)c(O)c2)nn1 [Compound 27A, 2-(6-(((1S,2S,3R,5R)-2-fluoro-9-azabicyclo[3.3.1]nonan-3-yl)(methyl)amino)pyridazin-3-yl)-5-(6-methylpyridazin-3-yl)phenol]",–,–,–,–,–,–,–,–,7.00 to 7.29,6.30 to 7.00,1.08,46.6,90,86,43,7.82 to 11.00,–

# Source: patent publication US12509460B2 (Skyhawk Therapeutics, Inc., priority 2019, dated 2025)
